The values below are quoted from earlier work in patent US6245797A, “Combination therapy for reducing the risks associated with cardio-and-cerebrovascular disease” (Merck & Co., Inc., priority 1998, dated 2001).

The conditions of the data set: Scandinavian Simvastatin Survival Study, over the course of the 5 year study.

Take `CCC(C)(C)C(=O)O[C@H]1C[C@@H](C)C=C2C=C[C@H](C)[C@H](CC[C@@H]3C[C@@H](O)CC(=O)O3)[C@H]21` [simvastatin]: the “treated patients who die of their disease” value was 5%.
